Source: BigSolDB 2.1

CCc1nnc(NC(=O)CCCCCNC(C)=O)s1
solubility (mole fraction)
Details	288.15 K	293.15 K	298.15 K	303.15 K	308.15 K	313.15 K	318.15 K
in ethanol	0.000578	0.000733	0.000965	0.00118	0.00162	0.0021	0.0026
in n-hexane	1.54e-05	1.81e-05	2.15e-05	2.47e-05	3.05e-05	3.55e-05	4.13e-05
in n-octanol	0.000685	0.000814	0.000961	0.00113	0.00142	0.00167	0.00194
